Data: publication PMC2772130 (Chemical research in toxicology, 2008)
Where two headings read alike, the source gives them in different places.

Assays:
P450 1B1 [1] = target: T1, P450 1B1 (Homo sapiens, UniProt Q16678); assay: Spectral binding titrations with purified P450 1B1; details: for ΔAmax (ΔA~416-A~383) / wavelengths (peak/trough): 1 μM P450 1B1; for ΔAmax (ΔA~416-A~383): means ± S.E.; for wavelengths (peak/trough): pH 7.4
T1 sequence (Q16678 1-543): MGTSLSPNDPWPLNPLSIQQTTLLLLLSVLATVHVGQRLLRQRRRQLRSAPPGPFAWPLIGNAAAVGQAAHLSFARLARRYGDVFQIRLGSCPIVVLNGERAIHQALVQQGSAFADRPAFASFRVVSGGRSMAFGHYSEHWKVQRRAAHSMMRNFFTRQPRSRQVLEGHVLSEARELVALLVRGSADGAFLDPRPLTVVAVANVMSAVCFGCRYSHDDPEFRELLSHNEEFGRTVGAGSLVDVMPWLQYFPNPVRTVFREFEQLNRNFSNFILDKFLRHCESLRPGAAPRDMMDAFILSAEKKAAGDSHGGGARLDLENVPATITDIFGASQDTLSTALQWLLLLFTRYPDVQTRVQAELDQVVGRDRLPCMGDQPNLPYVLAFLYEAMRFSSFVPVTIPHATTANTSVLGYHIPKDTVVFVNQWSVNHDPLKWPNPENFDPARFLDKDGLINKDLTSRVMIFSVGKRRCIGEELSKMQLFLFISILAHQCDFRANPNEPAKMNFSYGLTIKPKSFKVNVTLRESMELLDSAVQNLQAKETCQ

P450 1A1 [2] = target: T2, P450 1A1 (Homo sapiens, UniProt P04798); assay: Quenching of P450 fluorescence with inhibitors, P450 1A1; type: binding
T2 sequence (P04798 1-512): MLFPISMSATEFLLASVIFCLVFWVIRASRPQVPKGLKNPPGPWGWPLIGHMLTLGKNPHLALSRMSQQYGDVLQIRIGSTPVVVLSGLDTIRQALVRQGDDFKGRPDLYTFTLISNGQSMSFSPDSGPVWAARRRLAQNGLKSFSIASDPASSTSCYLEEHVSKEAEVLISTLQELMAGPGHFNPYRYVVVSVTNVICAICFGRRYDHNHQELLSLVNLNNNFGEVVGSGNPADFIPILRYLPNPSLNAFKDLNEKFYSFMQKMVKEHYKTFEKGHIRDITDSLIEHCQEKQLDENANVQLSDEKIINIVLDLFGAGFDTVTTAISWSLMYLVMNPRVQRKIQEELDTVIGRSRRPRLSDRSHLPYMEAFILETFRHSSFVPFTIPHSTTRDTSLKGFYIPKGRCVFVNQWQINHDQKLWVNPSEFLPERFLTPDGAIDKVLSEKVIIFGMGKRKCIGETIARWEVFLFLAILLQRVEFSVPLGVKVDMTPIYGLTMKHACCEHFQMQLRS

P450 1B1 [3] = target: T1, P450 1B1; assay: Inhibition of P450 1B1-dependent 7-ethoxyresorufin O-deethylation; details: for IC50: means and SE; for course of EROD Km values during the incubation: direct inhibitors
P450 1A2 [4] = target: T3, P450 1A2 (Homo sapiens, UniProt P05177); assay: Quenching of P450 fluorescence with inhibitors, P450 1A2; type: binding
T3 sequence (P05177 1-516): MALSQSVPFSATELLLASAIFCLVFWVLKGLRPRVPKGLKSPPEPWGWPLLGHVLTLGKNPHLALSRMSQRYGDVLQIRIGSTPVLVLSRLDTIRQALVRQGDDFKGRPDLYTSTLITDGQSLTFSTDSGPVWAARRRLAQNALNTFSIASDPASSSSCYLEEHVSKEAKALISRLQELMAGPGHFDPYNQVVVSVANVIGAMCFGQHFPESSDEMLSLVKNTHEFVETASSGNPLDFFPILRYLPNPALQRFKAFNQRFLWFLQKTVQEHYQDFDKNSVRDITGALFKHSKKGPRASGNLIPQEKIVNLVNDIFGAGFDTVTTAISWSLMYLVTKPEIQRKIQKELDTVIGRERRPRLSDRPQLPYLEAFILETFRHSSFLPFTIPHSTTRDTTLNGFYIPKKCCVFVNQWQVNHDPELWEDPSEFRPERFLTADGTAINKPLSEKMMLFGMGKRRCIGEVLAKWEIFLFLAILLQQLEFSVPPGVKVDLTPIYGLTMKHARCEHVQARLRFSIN

P450 1B1 [5] = target: T1, P450 1B1
P450 1B1 [6] = target: T1, P450 1B1; assay: Quenching of PAH; details: for interaction with P450 1B1 (quenching of inhibitor fluorescence): inhibitors at 10 nM
P450 1B1 [7] = target: T1, P450 1B1; assay: Quenching of P450 1B1; type: binding; details: extrapolated % quenching; 1.0 μM P450 1B1
P450 1A2 [8] = target: T3, P450 1A2; assay: Inhibition of P450 1A2-dependent EROD activity; type: biochemical; details: 37 °C
P450 1A1 [9] = target: T2, P450 1A1; assay: Inhibition of P450 1A1-dependent EROD activity; type: biochemical; details: for fold increase in EROD Km of P450 1A1: 1PP 66 nM, 3PPh 333 nM
[10] = inhibition of EROD activity IC50, 15 s of incubation time (direct and direct/restore inhibitors)

Row | Structure (SMILES) | Kd (P450 1B1 [1]) [nM] | ΔAmax (ΔA~416-A~383) (P450 1B1 [1]) | wavelengths (peak/trough) (P450 1B1 [1]) | IC50 (P450 1B1 [3]; [10]) [nM] | ΔAmax / Ks (P450 1B1 [5]) | PAH binding to P450 1B1 Bmax (P450 1B1 [7]) [%] | further results
1 | C=Cc1ccc2ccc3cccc4ccc1c2c34 [1VP, 1-vinylpyrene] | 4300 ± 500 | 0.092 ± 0.006 | 416/383 | 88 ± 10 | 0.021 | 65 ± 2 | Kd (P450 1A1 [2]): ~10000 nM; Kd (P450 1A2 [4]): ~10000 nM; Kd (P450 1B1 [6]): 1.9 to 18 nM
2 | C#Cc1ccc2ccccc2c1 [2EN, 2-ethynylnaphthalene] | 15000 ± 8000 | 0.049 ± 0.038 | 415/383 | 190000 ± 16000 | – | – | ΔAmax / Ks (P450 1B1 [1]): 0.003; course of EROD Km values during the incubation (P450 1B1 [3]): increased throughout the incubation period
3 | C#Cc1cc2ccc3cccc4ccc(c1)c2c34 [2EP, 2-ethynylpyrene] | 3400 ± 500 | 0.071 ± 0.005 | 416/387 | 110 ± 20 | 0.021 | 69 ± 3 | course of EROD Km values during the incubation (P450 1B1 [3]): increased throughout the incubation period; Kd (P450 1B1 [6]): 1.9 to 18 nM
4 | C#Cc1ccc2c(ccc3ccccc32)c1 [2EPh, 2-ethynylphenanthrene] | 4200 ± 1300 | 0.080 ± 0.013 | 414/383 | 130 ± 21 | 0.020 | 62 ± 4 | course of EROD Km values during the incubation (P450 1B1 [3]): increased throughout the incubation period; Kd (P450 1B1 [6]): 1.9 to 18 nM
5 | CC#Cc1ccc2c(ccc3ccccc32)c1 [2PPh, 2-(1-propynyl)phenanthrene] | 2200 ± 100 | 0.067 ± 0.001 | 415/383 | 100 ± 12 | 0.030 | 77 ± 5 | Kd (P450 1B1 [6]): 1.9 to 18 nM
6 | C#Cc1ccc2ccc3ccccc3c2c1 [3EPh, 3-ethynylphenanthrene] | 3000 ± 400 | 0.071 ± 0.004 | 414/383 | 110 ± 16 | 0.024 | 108 ± 22 | type of spectral change with P450 1B1 (P450 1B1 [1]; difference spectra): reverse type I
7 | Cc1ccc2cc3c(ccc4ccccc43)c3c2c1CC3 [3MC, 3-methylcholanthrene] | – | – | – | 14 ± 2 | – | 105 ± 6 | interaction with P450 1B1 (quenching of inhibitor fluorescence) (P450 1B1 [6]): not found
8 | CC#Cc1ccc2ccc3ccccc3c2c1 [3PPh, 3-(1-propynyl)phenanthrene] | 3100 ± 400 | 0.060 ± 0.004 | 415/383 | 40 ± 3 | 0.019 | 73 ± 5 | mechanism of inhibition of P450 1A2 EROD activity (P450 1A2 [8]): mechanism-based manner; EROD kcat of P450 1B1 relative to controls (P450 1B1 [3]; 1PP 66 nM, 3PPh 33 nM, after 6 min of incubation): 56%; fold increase in EROD Km of P450 1B1 (P450 1B1 [3]; 1PP 66 nM, 3PPh 33 nM, at 15 s): 2.3 fold; EROD Km of P450 1B1 relative to control value (P450 1B1 [3]; 3PPh 33 nM, 6 min of incubation): one-third; EROD kcat of P450 1B1 relative to control, first decrease (P450 1B1 [3]; initial stage of incubation): ~ one-fifth; fold increase in EROD Km of P450 1A1 (P450 1A1 [9]; at 360 s): 25 fold; fold increase in EROD Km of P450 1A1 (P450 1A1 [9]; initial incubation time): ~ 8 fold; mechanism of inhibition of P450 1A1 EROD activity (P450 1A1 [9]; 37 °C, 30 min): mechanism-based inhibitors
9 | C#Cc1cc2cccc3ccc4cccc1c4c32 [4EP, 4-ethynylpyrene] | 4000 ± 900 | 0.052 ± 0.006 | 416/383 | 250 ± 20 | 0.013 | 67 ± 3 | Kd (P450 1B1 [6]): 1.9 to 18 nM
10 | C#Cc1ccc(-c2ccccc2)cc1 [4Ebi, 4-ethynylbiphenyl] | 7600 ± 1200 | 0.023 ± 0.002 | 416/383 | 3300 ± 500 | – | – | ΔAmax / Ks (P450 1B1 [1]): 0.003; course of EROD Km values during the incubation (P450 1B1 [3]): increased throughout the incubation period
11 | CC#Cc1ccc(-c2ccccc2)cc1 [4Pbi, 4-(1-propynyl)biphenyl] | 12000 ± 5000 | 0.074 ± 0.022 | 415/386 | – | – | – | ΔAmax / Ks (P450 1B1 [1]): 0.005; IC50 (P450 1B1 [3]; inhibition of EROD activity IC50, 6 min of incubation time (mechanism-based inhibitor)): 17000 ± 2000 nM
12 | Cc1cc2ccccc2c2ccc3ccccc3c12 [5MeCh, 5-methylchrysene] | – | – | – | 8 ± 1 | – | 83 ± 5 | interaction with P450 1B1 (quenching of inhibitor fluorescence) (P450 1B1 [6]): not found
13 | C#Cc1cc2ccccc2c2ccccc12 [9EPh, 9-ethynylphenanthrene] | 3600 ± 1000 | 0.071 ± 0.010 | 415/383 | 140 ± 18 | 0.020 | 52 ± 3 | course of EROD Km values during the incubation (P450 1B1 [3]): increased throughout the incubation period
14 | CC#Cc1cc2ccccc2c2ccccc12 [9PPh, 9-(1-propynyl)phenanthrene] | 3200 ± 300 | 0.049 ± 0.002 | 416/383 | 110 ± 21 | 0.015 | 61 ± 3 | course of EROD Km values during the incubation (P450 1B1 [3]): increased throughout the incubation period
15 | c1ccc2cc3c(ccc4ccccc43)cc2c1 [B[a]A, benz[a]anthracene] | – | – | – | – | – | 46 ± 1 | IC50 (P450 1B1 [3]; read-out: inhibition of EROD activity IC50, 15 s of incubation time (direct and direct/restore inhibitors)): 9 ± 1 nM
16 | c1ccc2c(c1)-c1cccc3c1c-2cc1ccccc13 [B[b]FA, benzo[b]fluoranthene] | – | – | – | 5 ± 1 | – | 91 ± 2 | Kd (P450 1A1 [2]): ~10000 nM; Kd (P450 1A2 [4]): ~10000 nM; interaction with P450 1B1 (quenching of inhibitor fluorescence) (P450 1B1 [6]): not found
17 | c1ccc2c(c1)c1cccc3ccc4cccc2c4c31 [B[e]P, benzo[e]pyrene] | – | – | – | 17 ± 2 | – | 100 ± 6 | interaction with P450 1B1 (quenching of inhibitor fluorescence) (P450 1B1 [6]): not found
18 | c1ccc2c3c(ccc2c1)-c1cccc2cccc-3c12 [B[j]FA, benzo[j]fluoranthene] | – | – | – | 44 ± 6 | – | – | –
19 | c1ccc2c(c1)ccc1nc3ccc4ccccc4c3cc12 [DB[a,j]Ac, dibenz[a,j]acridine] | – | – | – | 15 ± 2 | – | – | Kd (P450 1B1 [6]): 14 nM
20 | Cc1c2ccccc2c(C)c2c1ccc1ccccc12 [DMBA, 7,12-dimethylbenz[a]anthracene] | – | – | – | 300 ± 33 | – | 62 ± 1 | –
21 | c1ccc2c(c1)-c1cccc3cccc-2c13 [FA, fluoranthene] | – | – | – | 15 ± 1 | – | 91 ± 2 | Kd (P450 1A1 [2]): ~10000 nM; Kd (P450 1A2 [4]): ~10000 nM; interaction with P450 1B1 (quenching of inhibitor fluorescence) (P450 1B1 [6]): not found
22 | c1ccc2c(c1)ccc1c3ccccc3ccc21 [chrysene] | – | – | – | 92 ± 11 | – | 84 ± 6 | interaction with P450 1B1 (quenching of inhibitor fluorescence) (P450 1B1 [6]): not found
